Format in all cases: physicochemical
Data set [1] is described as follows: Bulk density (PT-SV100 Scott Volumeter). An excerpt:
The bulk density, also called apparent density, can be defined as the ratio of the mass to the volume of an untapped powder sample, as "poured". The bulk density is given in grams per millilitre (g/ml) and is typically calculated by "pouring" a known mass of powder into a graduated cylinder.
(§1) Bulk density and tapped density can be measured according to the method disclosed in the European Pharmacopoeia section 2.9.34 (Bulk density and tapped density of powders), for example, the bulk density may be measured using the PT-SV100 Scott Volumeter and the tapped density may be measured using the PT-TD200 Tap Density Tester (Pharma Test Apparatebau AG, Germany).
(§2) The bulk density was measured using a PT-SV100 Scott Volumeter (Pharma Test) and the tapped density was measured using a PT-TD200 Tap Density Tester (Pharma Test).

Data set [2] can be described thus: Tapped density (PT-TD200 Tap Density Tester). Here is the method:
On the other hand, tapped density, also called compacted density, of a powder is the ratio of the mass of the powder to the volume occupied by the powder after it has been tapped for a defined period of time. Tapped density is measured by first gently introducing a known sample mass into a graduated cylinder and carefully levelling the powder without compacting it. The cylinder is then mechanically tapped by raising the cylinder and allowing it to drop under its own weight using a suitable mechanical tapped density tester that provides a suitable fixed drop distance and nominal drop rate
as §1, §2

Data set [3] in a line: Carr index (compressibility) calculated from bulk and tapped density. Here is the method: The Carr index, also called Carr's index or compressibility index, is calculated according to the following formula: Carr index = (Density (tapped)−Density (bulk))/(Density (tapped)) × 100 [formula]
Free flowing powders have smaller values of the Carr index than poor flowing powders. In general, a Carr index greater than 25 is considered to be an indication of poor flowability, and below 15, of good flowability.
(§3) The relationship between Carr index and/or Hausner ratio with powder flowability is well recognized in the art, for example, as disclosed by M. E. Aulton, in "Powder flow", chapter 12 of the well-recognized reference book in pharmaceutical technology "Aulton's Pharmaceutics. The design and manufacture of medicines", Fifth Edition 2018, M.E. Aulton and K.M.G. Taylor, Editors, Elsevier Ltd, as summarized in the following table: […]

Data set [4] is described as follows: Hausner ratio calculated from bulk and tapped density. Here is the method:
Hausner ratio is also predictive of powder flow, and is calculated according to the following formula: Hausner ratio = (Density (tapped))/(Density (bulk)) […] [formula]
In this case, a Hausner ratio greater than 1.34 is generally considered to be an indication of poor flowability.
as §3

Data set [5] is described as follows: Flow rate.
The nature of data set [6]: Angle of repose from radius and height of the poured cone. The settings on record: tan^-1 (height/radius) of the cone after pouring. The text has this: The "angle of repose" is another parameter for indirectly quantifying powder flowability. It is the angle at which a material will rest on a stationary heap, specifically, is the angle formed by the heap slope and the horizontal plane. It may be calculated by different methods, commonly, just pouring the material on a flat surface. It also can be calculated as "drained angle of repose", as the angle measured on the internal conical face of a material which has been formed when drained from an orifice of a flat-bottomed container to the horizontal. A dynamic angle of repose can also be used, which is the angle to the horizontal of the free surface formed in a relatively slowly rotating drum (Aulton, op. cit., pg. 197).
In this case, the lower the value of the angle of repose, the higher the flowability of the material. It is generally considered that an angle of repose higher than 45 correlates with poor flowability, whereas an angle of repose under 30 correlates with excellent flowability.
The angle of repose was determined by measuring the radius and the height of the cone formed after pouring the powder, using the formula tan^-1 (height/radius).

The nature of data set [7]: Aspect (visual appearance) of the powder or granules. An excerpt: It can be observed that the non-compacted material has damp and agglomerated appearance, whereas the compacted product has dry, non-agglomerated, flowable appearance.
A short description of data set [8]: Particle size by sieving. The settings on record: compacted product passed through a sieve of 800 micron opening; 100% of the particles. The text has this:
The compactor was connected to a rotor granulator for milling the outcoming compacted plaque. The granulation speed was fixed to 70 r.p.m. and the obtained granulate was passed through a sieve of 800 micron opening.

Data set [9] in a line: Handling observed during manufacture of capsules and tablets. The method, then: All ingredients were added to a Turbula mixer, blended during 15 minutes, and filled into capsules of 00 size.
Furthermore, the powder mixture was easily blended and good homogeneity was easily achieved, without segregation of the ingredients.
All ingredients were mixed in Turbula mixer during about 15 minutes and compressed into tablets.
The powder mixture was easily blended and had good homogeneity, without segregation of the ingredients.

[10] abbreviates: general description of the starting material, 'for example' value.

The structures appear in SMILES notation. Where two headings read alike, the source gives them in different places.

`COC1=C(OC)C(=O)C(C/C=C(\C)CC/C=C(\C)CC/C=C(\C)CC/C=C(\C)CC/C=C(\C)CC/C=C(\C)CC/C=C(\C)CC/C=C(\C)CC/C=C(\C)CCC=C(C)C)=C(C)C1=O` [Non-compacted CoQ10 (starting material), 2-[(2E,6E,10E,14E,18E,22E,26E,30E,34E)-3,7,11,15,19,23,27,31,35,39-Decamethyltetraconta-2,6,10,14,18,22,26,30,34,38-decaenyl]-5,6-dimethoxy-3-methylcyclohexa-2,5-diene-1,4-dione]: the Bulk density in data set [1] and in [1] (listed as coenzyme Q10 raw material) was 0.22 g/mL in each case. Further, the “bulk (or apparent) density” value in data set [1] (setting [10]) is “about 0.22 mg/ml”. This compound displayed a Tapped density in data set [2] of 0.34 g/mL. In data set [2] (setting [10]), the “tapped (or compacted) density” value was “about 0.34 mg/ml”. In addition, in data set [3], the “Compressibility (Carr Index)” value was 35.3%. Further, the Hausner ratio in data set [4] is listed as 1.55. The Flow rate result in [5] is “Slow, the material sticks to the walls”. In data set [6], this compound displayed an Angle of repose of 45°. In addition, the Aspect result in data set [7] is “Orange powder with damp, agglomerated appearance, hygroscopic”. Also, the particle size entry in [8] was “less than 800 microns”.
Take `COC1=C(OC)C(=O)C(C/C=C(\C)CC/C=C(\C)CC/C=C(\C)CC/C=C(\C)CC/C=C(\C)CC/C=C(\C)CC/C=C(\C)CC/C=C(\C)CC/C=C(\C)CCC=C(C)C)=C(C)C1=O` [Compacted CoQ10 (Example 1), 2-[(2E,6E,10E,14E,18E,22E,26E,30E,34E)-3,7,11,15,19,23,27,31,35,39-Decamethyltetraconta-2,6,10,14,18,22,26,30,34,38-decaenyl]-5,6-dimethoxy-3-methylcyclohexa-2,5-diene-1,4-dione]: the Bulk density in [1] and in [1] (listed as compacted coenzyme Q10) was 0.52 g/mL each time. Moreover, the Tapped density in data set [2] is 0.57 g/mL. In data set [3], the “Compressibility (Carr Index)” value is recorded as 8.78%. The Hausner ratio in [4] was 1.10. In data set [5], the Flow rate entry is “Three times faster than for uncompacted CoQ10. The material does not stick to the walls”. The compound also yielded an Angle of repose in data set [6] of 10°. The Aspect result in [7] is “Orange granules without agglomerates, highly flowable and with dry appearance”. Further, the particle size entry in data set [8] was “less than 800 microns”. For the same compound, the “flowability and adherence during tablet preparation” value in [9] (30 mg tablets by direct compression, Turbula mixer about 15 minutes) is “good flowability and did not adhere neither to the walls of vessels and mixers nor to the punches and dies of the tableting machine”. Moreover, the “flowability and adherence during capsule preparation” value in [9] (100 mg hard gelatin capsules, Turbula mixer 15 minutes) was “good flowability and did not adhere to the walls of vessels and mixers”.
